From US10654833B2, “ASK1 isoindolin-1-one inhibitors and methods of use thereof” (Hepatikos Therapeutics, LLC, priority 2018, dated 2020)

target: recombinant human ASK1 protein (Homo sapiens (Human), UniProt Q99683); assay: ASK1 kinase activity inhibition assay (radiometric 33P incorporation into MBP); assay type: biochemical; conditions: Table 3; 20 μM MBP, 10 μM 33P-ATP
Experimental: ASK1 Kinase Activity Inhibition Assay
Inhibition of ASK1 kinase activity was determined radiometrically using 33P substrate incorporation (Reaction Biology Corp., Malvern, Pa.). Briefly, recombinant human ASK1 protein, 20 μM substrate (myelin basic protein (MBP)), and compound (diluted from DMSO stock to give 1% final DMSO) were incubated in Base Reaction buffer (20 mM Hepes (pH 7.5), 10 mM MgCl2, 1 mM EGTA, 0.02% Brij35, 0.02 mg/mL BSA, 0.1 mM Na3VO4, 2 mM DTT, 1% DMSO) at room temperature for 20 minutes. The reaction was initiated by addition of 10 μM 33P-ATP (specific activity […]). The reaction was then allowed to proceed for 2 hours at room temperature. Upon reaction termination, the mixture was spotted on P81 exchange paper and kinase activity by incorporation of 33P into MBP substrate was detected by filter-binding method.

Chain of recombinant human ASK1 protein (Q99683 whole entry): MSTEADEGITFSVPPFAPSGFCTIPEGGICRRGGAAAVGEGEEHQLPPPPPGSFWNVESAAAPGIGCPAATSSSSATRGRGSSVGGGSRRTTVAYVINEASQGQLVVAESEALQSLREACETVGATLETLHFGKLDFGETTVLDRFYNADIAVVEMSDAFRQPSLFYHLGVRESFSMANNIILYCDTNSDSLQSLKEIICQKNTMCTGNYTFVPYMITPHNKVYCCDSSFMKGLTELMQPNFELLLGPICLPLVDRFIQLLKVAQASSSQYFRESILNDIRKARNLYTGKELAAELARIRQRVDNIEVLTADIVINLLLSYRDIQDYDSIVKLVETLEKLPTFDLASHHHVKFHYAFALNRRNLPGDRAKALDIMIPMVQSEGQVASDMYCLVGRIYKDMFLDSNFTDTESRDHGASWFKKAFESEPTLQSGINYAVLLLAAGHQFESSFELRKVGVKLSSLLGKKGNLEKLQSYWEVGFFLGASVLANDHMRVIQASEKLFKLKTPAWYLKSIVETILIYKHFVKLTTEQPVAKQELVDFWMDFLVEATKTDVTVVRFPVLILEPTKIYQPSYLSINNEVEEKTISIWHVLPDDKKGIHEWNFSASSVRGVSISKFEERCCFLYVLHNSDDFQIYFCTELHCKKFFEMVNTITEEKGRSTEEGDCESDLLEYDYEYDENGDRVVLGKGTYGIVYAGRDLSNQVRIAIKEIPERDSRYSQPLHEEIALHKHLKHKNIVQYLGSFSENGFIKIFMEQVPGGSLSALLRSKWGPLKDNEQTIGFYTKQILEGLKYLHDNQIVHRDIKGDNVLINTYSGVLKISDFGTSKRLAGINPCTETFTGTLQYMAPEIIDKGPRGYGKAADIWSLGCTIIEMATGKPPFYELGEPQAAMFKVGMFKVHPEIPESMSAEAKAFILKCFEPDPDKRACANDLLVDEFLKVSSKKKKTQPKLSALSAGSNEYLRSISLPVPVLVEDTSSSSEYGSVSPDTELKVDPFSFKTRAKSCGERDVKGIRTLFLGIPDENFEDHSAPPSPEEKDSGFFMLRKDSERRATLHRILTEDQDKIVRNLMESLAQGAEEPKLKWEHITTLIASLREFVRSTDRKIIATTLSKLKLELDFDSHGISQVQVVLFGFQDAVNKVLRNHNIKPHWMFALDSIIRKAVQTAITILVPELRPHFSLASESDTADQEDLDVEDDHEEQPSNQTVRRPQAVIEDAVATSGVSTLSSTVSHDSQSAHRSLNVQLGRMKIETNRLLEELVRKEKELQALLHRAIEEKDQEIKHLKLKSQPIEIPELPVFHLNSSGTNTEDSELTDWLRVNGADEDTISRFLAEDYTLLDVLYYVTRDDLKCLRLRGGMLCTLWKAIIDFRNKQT

| SMILES | IC50 [nM] |
| --- | --- |
| O=C(O)c1ccc(-c2ccc3c(c2)C(=O)N(c2cccc(-c4nncn4C4CC4)n2)C3)cc1 [Compound 71, 4-(2-(6-(4-Cyclopropyl-4H-1,2,4-triazol-3-yl)pyridin-2-yl)-3-oxoisoindolin-5-yl)benzoic Acid] | 4.3 |
| CC(C)n1cnnc1-c1cccc(N2Cc3ccc(-c4cccc(C(=O)O)c4O)cc3C2=O)n1 [Compound 95, 2-Hydroxy-3-(2-(6-(4-isopropyl-4H-1,2,4-triazol-3-yl)pyridin-2-yl)-3-oxoisoindolin-5-yl) benzoic Acid] | 3.4 |
| CC(C)n1cnnc1-c1cccc(N2Cc3ccc(-c4ccc(C5(C(=O)O)CC5)cc4)cc3C2=O)n1 [Compound 86, 1-(4-(2-(6-(4-Isopropyl-4H-1,2,4-triazol-3-yl)pyridin-2-yl)-3-oxoisoindolin-5-yl)phenyl)cyclopropane-1-carboxylic Acid] | 1.83 |
| CC(C)n1cnnc1-c1cccc(N2Cc3ccc(-c4cc(C(=O)O)ccc4CO)cc3C2=O)n1 [Compound 59, 4-(Hydroxymethyl)-3-(2-(6-(4-isopropyl-4H-1,2,4-triazol-3-yl)pyridin-2-yl)-3-oxoisoindolin-5-yl)benzoic Acid] | 5.3 |
| CC(C)n1cnnc1-c1cccc(N2Cc3ccc(-c4cc(C(=O)O)ccc4C#N)cc3C2=O)n1 [Compound 14, 4-Cyano-3-(2-(6-(4-isopropyl-4H-1,2,4-triazol-3-yl)pyridin-2-yl)-3-oxoisoindolin-5-yl) Benzoic Acid] | 15.6 |
| CCc1sc(C(=O)O)cc1-c1ccc2c(c1)C(=O)N(c1cccc(-c3nncn3C(C)C)n1)C2 [Compound 62, 5-Ethyl-4-(2-(6-(4-isopropyl-4H-1,2,4-triazol-3-yl)pyridin-2-yl)-3-oxoisoindolin-5-yl)thiophene-2-carboxylic Acid] | 6.8 |
| CC(C)n1cnnc1-c1cccc(N2Cc3ccc(-c4ccc(Cl)cc4C(=O)O)cc3C2=O)n1 [Compound 65, 5-Chloro-2-(2-(6-(4-isopropyl-4H-1,2,4-triazol-3-yl)pyridin-2-yl)-3-oxoisoindolin-5-yl)benzoic Acid] | 34.4 |
| CC(C)n1cnnc1-c1cccc(N2Cc3ccc(-c4cccc(-c5nn[nH]n5)c4)cc3C2=O)n1 [Compound 37, 6-(3-(2H-Tetrazol-5-yl)phenyl)-2-(6-(4-isopropyl-4H-1,2,4-triazol-3-yl)pyridin-2-yl)isoindolin-1-one] | 2.8 |
| CC(C)n1cnnc1-c1cccc(N2Cc3ccc(-c4cccc(C(=O)O)c4F)cc3C2=O)n1 [Compound 2, 2-Fluoro-3-(2-(6-(4-isopropyl-4H-1,2,4-triazol-3-yl)pyridin-2-yl)-3-oxoisoindolin-5-yl) Benzoic Acid] | 4.3 |
| COC(=O)C(C)(C)c1ccc(-c2ccc3c(c2)C(=O)N(c2cccc(-c4nncn4C(C)C)n2)C3)cc1 [Compound 88, Methyl 2-(4-(2-(6-(4-isopropyl-4H-1,2,4-triazol-3-yl)pyridin-2-yl)-3-oxoisoindolin-5-yl)phenyl)-2-methylpropanoate] | 4.9 |
| CC(C)(C(=O)O)c1ccc(-c2ccc3c(c2)C(=O)N(c2cccc(-c4nncn4C4CC4)n2)C3)cc1 [Compound 53, 2-(4-(2-(6-(4-cyclopropyl-4H-1,2,4-triazol-3-yl)pyridin-2-yl)-3-oxoisoindolin-5-yl)phenyl)-2-methylpropanoic acid] | 2.6 |
| CC(C(=O)O)c1ccc(-c2ccc3c(c2)C(=O)N(c2cccc(-c4nncn4C(C)C)n2)C3)cc1 (centres unmarked) [Compound 85, 2-(4-(2-(6-(4-Isopropyl-4H-1,2,4-triazol-3-yl)pyridin-2-yl)-3-oxoisoindolin-5-yl)phenyl)propanoic Acid] | 3.6 |
| CC(C)n1cnnc1-c1cccc(N2Cc3ccc(-c4cc(F)cc(C(=O)O)c4F)cc3C2=O)n1 [Compound 97, 2,5-Difluoro-3-(2-(6-(4-isopropyl-4H-1,2,4-triazol-3-yl)pyridin-2-yl)-3-oxoisoindolin-5-yl) Benzoic Acid] | 4.7 |
| O=C(O)c1ccc(F)c(-c2ccc3c(c2)C(=O)N(c2cccc(-c4nncn4C4CC4)n2)C3)c1 [Compound 93, 3-(2-(6-(4-Cyclopropyl-4H-1,2,4-triazol-3-yl)pyridin-2-yl)-3-oxoisoindolin-5-yl)-4-fluorobenzoic Acid] | 12.4 |
| CC(C)n1cnnc1-c1cccc(N2Cc3ccc(-c4ccc(O)c(C(=O)O)c4)cc3C2=O)n1 [Compound 64, 2-Hydroxy-5-(2-(6-(4-isopropyl-4H-1,2,4-triazol-3-yl)pyridin-2-yl)-3-oxoisoindolin-5-yl)benzoic Acid] | 7 |
| CC(C)n1cnnc1-c1cccc(N2Cc3ccc(-c4ccc(C(=O)O)cc4O)cc3C2=O)n1 [Compound 69, 3-Hydroxy-4-(2-(6-(4-isopropyl-4H-1,2,4-triazol-3-yl)pyridin-2-yl)-3-oxoisoindolin-5-yl)benzoic Acid] | 6.6 |
| CC(C)n1cnnc1-c1cccc(N2Cc3ccc(N4CCCC(C(=O)O)C4)cc3C2=O)n1 (centres unmarked) [Compound 28, 1-(2-(6-(4-Isopropyl-4H-1,2,4-triazol-3-yl)pyridin-2-yl)-3-oxoisoindolin-5-yl)piperidine-3-carboxylic Acid] | 11.2 |
| COc1ccc(-c2ccc3c(c2)C(=O)N(c2cccc(-c4nncn4C(C)C)n2)C3)cc1C(=O)O [Compound 96, 5-(2-(6-(4-Isopropyl-4H-1,2,4-triazol-3-yl)pyridin-2-yl)-3-oxoisoindolin-5-yl)-2-methoxybenzoic Acid] | 4.9 |
| CC(C)n1cnnc1-c1cccc(N2Cc3ccc(-c4cc(C(=O)O)ccc4F)cc3C2=O)n1 [Compound 5, 4-Fluoro-3-(2-(6-(4-isopropyl-4H-1,2,4-triazol-3-yl)pyridin-2-yl)-3-oxoisoindolin-5-yl)benzoic Acid] | 0.3 |
| COc1cc(N)c(-c2ccc3c(c2)C(=O)N(c2cccc(-c4nncn4C(C)C)n2)C3)cc1C(=O)O [Compound 66, 4-Amino-5-(2-(6-(4-isopropyl-4H-1,2,4-triazol-3-yl)pyridin-2-yl)-3-oxoisoindolin-5-yl)-2-methoxybenzoic Acid] | 8.9 |
| CC(C)n1cnnc1-c1cccc(N2Cc3ccc(-c4cc(C#N)cc(C(=O)O)c4)cc3C2=O)n1 [Compound 13, 3-Cyano-5-(2-(6-(4-isopropyl-4H-1,2,4-triazol-3-yl)pyridin-2-yl)-3-oxoisoindolin-5-yl) benzoic Acid] | 1.6 |

More lines, now with the values ahead:

| IC50 [nM] | SMILES |
| --- | --- |
| 8.2 | CC(C)n1cnnc1-c1cccc(N2Cc3ccc(-c4ccc(-n5ncc(C(=O)O)c5N)cc4)cc3C2=O)n1 [Compound 120, 5-Amino-1-(4-(2-(6-(4-isopropyl-4H-1,2,4-triazol-3-yl)pyridin-2-yl)-3-oxoisoindolin-5-yl)phenyl)-1H-pyrazole-4-carboxylic Acid] |
| 6.16 | CC(C)n1cnnc1-c1cccc(N2Cc3ccc(N4CCC(C(=O)O)CC4)cc3C2=O)n1 [Compound 128, 1-(2-(6-(4-isopropyl-4H-1,2,4-triazol-3-yl)pyridin-2-yl)-3-oxoisoindolin-5-yl)piperidine-4-carboxylic acid] |
| 4.6 | COc1ncc(-c2ccc3c(c2)C(=O)N(c2cccc(-c4nncn4C(C)C)n2)C3)cc1C(=O)O [Compound 116, 5-(2-(6-(4-Isopropyl-4H-1,2,4-triazol-3-yl)pyridine-2-yl)-3-oxoisoindolin-5-yl)-2-methoxynicotinic Acid] |
| 6.37 | COC(=O)c1cccc(-c2ccc3c(c2)C(=O)N(c2cccc(-c4nncn4C(C)C)n2)C3)c1 [Compound 99, Methyl 3-(2-(6-(4-isopropyl-4H-1,2,4-triazol-3-yl)pyridin-2-yl)-3-oxoisoindolin-5-yl)benzoate] |
| 67.1 | Cc1cc(C(=O)O)c(C#N)c(-c2ccc3c(c2)C(=O)N(c2cccc(-c4nncn4C(C)C)n2)C3)n1 [Compound 118, 3-Cyano-2-(2-(6-(4-isopropyl-4H-1,2,4-triazol-3-yl)pyridin-2-yl)-3-oxoisoindolin-5-yl)-6-methylisonicotinic Acid] |
| 19.2 | O=C(O)CC1CCN(c2ccc3c(c2)C(=O)N(c2cccc(-c4nncn4C4CC4)n2)C3)CC1 [Compound 130, 2-(1-(2-(6-(4-Cyclopropyl-4H-1,2,4-triazol-3-yl)pyridin-2-yl)-3-oxoisoindolin-5-yl)piperidin-4-yl)acetic Acid] |
| 8.4 | O=C1c2cc(-c3cccc(C4(C(=O)O)CC4)c3)ccc2CN1c1cccc(-c2nncn2C2CC2)n1 [Compound 106, 1-(3-(2-(6-(4-Cyclopropyl-4H-1,2,4-triazol-3-yl)pyridin-2-yl)-3-oxoisoindolin-5-yl)phenyl)cyclopropane-1-carboxylic Acid] |
| 21.7 | O=C(O)C1CCCN(c2ccc3c(c2)C(=O)N(c2cccc(-c4nncn4C4CC4)n2)C3)C1 (centres unmarked) [Compound 131, 1-(2-(6-(4-Cyclopropyl-4H-1,2,4-triazol-3-yl)pyridin-2-yl)-3-oxoisoindolin-5-yl)piperidine-3-carboxylic Acid] |
| 5.44 | O=C1c2cc(-c3cccc(-c4nn[nH]n4)c3)ccc2CN1c1cccc(-c2nncn2C2CC2)n1 [Compound 110, 6-(3-(2H-Tetrazol-5-yl)phenyl)-2-(6-(4-cyclopropyl-4H-1,2,4-triazol-3-yl)pyridin-2-yl)isoindolin-1-one] |
| 5.2 | CC(C)n1cnnc1-c1cccc(N2Cc3ccc(-c4cccc(OCC(=O)O)c4)cc3C2=O)n1 [Compound 108, 2-(3-(2-(6-(4-Isopropyl-4H-1,2,4-triazol-3-yl)pyridin-2-yl)-3-oxoisoindolin-5-yl)phenoxy) Acetic Acid] |
| 8.3 | CC(C)n1cnnc1-c1cccc(N2Cc3ccc(-c4ccn5ncc(C(=O)O)c5n4)cc3C2=O)n1 [Compound 124, 5-(2-(6-(4-Isopropyl-4H-1,2,4-triazol-3-yl)pyridin-2-yl)-3-oxoisoindolin-5-yl)pyrazolo[1,5-a]pyrimidine-3-carboxylic Acid] |
